One may read the IC50 as the concentration that gives 50% inhibition. For orientation: inhibition means the share of the control response that was lost under treatment.

The values below come from PMC7248693, “Synthesis and Biological Evaluation of 2-Substituted Benzyl-/Phenylethylamino-4-amino-5-aroylthiazoles as Apoptosis-Inducing Anticancer Agents” (Molecules, 2020).

Where only a bound is given, the exact number is not on record here.

The test system of one data set is tubulin. The settings on record: previously reported series with general structure 2; reference not printed at the place; read-out: IC50 tubulin assembly assay; cited from earlier work.
The subject of data set [1] is panel of four different cancer cell lines. Details: method as in earlier work. To be noted: read-out: IC50 against a panel of four different cancer cell lines; cited from earlier work.
The target in a further data set is T1, CDK9/CyclinK (Homo sapiens, UniProt P50750).
T1 construct: purchased Promega
Briefly: In vitro CDK inhibition assay (ADP-Glo), CDK9. To be noted: single concentration of 10 μM; range over CDK4, CDK6, CDK9 and 8f, 8k; read-out: enzyme inhibition CDK9. The data set is classed as biochemical. The procedure: (§1) The CDK4, 6 and 9 inhibitory activies were determined using the CDK4/Cyclin D1 Assay kit (ProQinase, Freiburg im Breisgau, Germany), CDK6/Cyclin D3 Kinase Enzyme System (Promega, Milan, Italy) and CDK9/CyclinK Kinase Enzyme System (Promega) by ADP-Glo CDK assays following the manufacturer’s instructions. The assay was performed with the test compounds at 10 μM.
(In general: In ADP-Glo the light output rises with the ADP produced.)

In another data set the target is T2, CDK6/Cyclin D3 (Homo sapiens, UniProt Q00534).
T2 construct: purchased Promega
Briefly: In vitro CDK inhibition assay (ADP-Glo), CDK6. The data set is classed as biochemical. The settings on record: single concentration of 10 μM; range over CDK4, CDK6, CDK9 and 8f, 8k; read-out: enzyme inhibition CDK6. How it is done:
as §1

Another data set concerns SK-MEL-1. Briefly: Antiproliferative activity, MTT assay, SK-MEL-1 cells. It counts as cell-based, human. To be noted: Homo sapiens, SK-MEL-1; 72 h, MTT; mean ± SE, at least three independent experiments. From the text: (§2) In Table 1, we summarize the antiproliferative activity of the 15 novel 2-arylalkylamino-4-amino-5-(3′,4′,5′-trimethoxybenzoyl)thiazole derivatives 8a–o against human leukemia (U-937) and melanoma (SK-MEL-1) tumor cells lines.
(§3) Human U-937 and SK-MEL-1 cell lines were from the German Collection of Microorganisms and Cell Cultures (Braunschweig, Germany; DSMZ No: ACC 5 and ACC 303, respectively). The U-937 is a myeloid leukemia cell line isolated from a histiocytic lymphoma. SK-MEL-1 is a melanoma cell line. Cells were cultured in suspension in RPMI 1640 medium supplemented with 10% (v/v) fetal bovine serum and antibiotics (100 μg mL^−1 streptomycin and 100 U mL^−1 penicillin), at 37 °C in a humidified atmosphere containing 5% CO2. The trypan blue exclusion method was used for counting the cells by a hemocytometer, and cell viability was always greater than 95% in all experiments. Compounds were dissolved in DMSO, and further dilutions were made in culture medium just before use. […] The effects on cell viability of synthetic compounds were determined using a colorimetric assay with the reduction of 3-(4,5-dimethyl-2-thiazolyl-)-2,5-diphenyl-2H-tetrazolium bromide (MTT) as previously described. Briefly, 5 × 10^3 cells were seeded in 96-well microculture plates with increasing concentrations of compounds for 72 h. Then, MTT (0.5 mg mL^−1) was added and incubated for 4 h, and the reaction was stopped with 20% sodium dodecyl sulfate. A570 was used as a measure of cell viability. Concentrations inducing a 50% inhibition of cell growth were determined graphically by nonlinear regression using the curve-fitting algorithm of GraphPad Prism 4.0 (GraphPad Inc La Jolla, CA, USA).
(In general: Formazan colour is commonly taken as a measure of viable cells.)

For the next data set, the target named is T3, CDK4/Cyclin D1 (Homo sapiens, UniProt P11802).
T3 construct: purchased ProQinase
The data set can be described thus: In vitro CDK inhibition assay (ADP-Glo), CDK4. The data set is classed as biochemical. To be noted: single concentration of 10 μM; range over CDK4, CDK6, CDK9 and 8f, 8k; read-out: enzyme inhibition CDK4. How it is done:
as §1

In another data set the test system is U-937 leukemia cells. The data set can be described thus: Cell cycle analysis by flow cytometry (propidium iodide). The data set is classed as cell-based, human. The procedure: Induction of apoptosis in cancer cells is recognized as an efficient strategy for cancer chemotherapy. For this reason, it was decided to determine whether these compounds display their cytotoxic action through alterations in cell cycle progression and induction of cell apotosis. To this end, the effects at different time periods (6, 12 and 24 h) with different concentrations (10 and 30 μM) of 8f and 8k on cell cycle progression on U-937 leukemia cells were investigated by flow cytometry analyses.
Flow cytometric analysis of propidium iodide-stained cells was performed as previously described. Briefly, U-937 cells were treated with the indicated compounds at the specified concentrations in RPMI 1640 medium. After treatments, cells were centrifuged for 10 min at 500× g, washed with cold phosphate-buffered saline (PBS), fixed with ice-cold 75% ethanol and stored at −20 °C for at least 1 h. Samples were then centrifuged at 500 × g for 10 min at 4 °C, washed with PBS, resuspended in 200 μL of PBS containing 100 μg mL^−1 RNase A and 50 μg mL^−1 propidium iodide and incubated for 1 h in the dark. The DNA content was analyzed by flow cytometry with a Becton-Dickinson FACSVerse^TM cytometer (BD Biosciences, San Jose, CA, USA). The percentage of cells in each phase of the cell cycle was determined for a minimum of 10^4 cells, and histograms were analyzed with Flowing 2.5.0 software.
A general note: Flow cytometry measures light scatter and fluorescence of single cells or particles in a stream.

Another data set relates to Bovine brain tubulin. Briefly: Inhibition of tubulin polymerization (turbidimetric assembly). It counts as biochemical. To be noted: for IC50: 10 μM tubulin, 20 min incubation at 30 °C; for inhibition of tubulin polymerization: at high concentrations (up to 20 μM). How it is done:
Bovine brain tubulin was purified as described previously. To evaluate the effect of the compounds on tubulin assembly in vitro [31], varying concentrations were preincubated with 10 μM tubulin in glutamate buffer at 30 °C and then cooled to 0 °C. After addition of GTP, the mixtures were transferred to 0 °C cuvettes in a recording spectrophotometer and warmed to 30 °C, and the assembly of tubulin was observed turbidimetrically. The IC50 was defined as the compound concentration that inhibited the extent of assembly by 50% after a 20 min incubation.

Data set [2] is described as follows: Cytotoxicity against peripheral blood lymphocytes, MTT assay. To be noted: human, peripheral blood lymphocytes (PBL) from healthy donors, read-out: IC50 cytotoxic activity against normal cells (PBL). It counts as cell-based. The procedure: In order to investigate the selective antiproliferative activity of the new synthesized compounds, we tested representative derivatives 8f and 8k against peripheral blood lymphocytes (PBL) isolated from healthy donors.
PBLs from healthy donors were obtained by separation on Lymphoprep (Fresenius KABI Norge AS, Halden, Norway) gradient. After extensive washing, cells were resuspended (1.0 × 10^6 cells/mL) in RPMI-1640 with 10% fetal bovine serum and incubated overnight in a 96-well tissue culture microtiter plate. Varying compound concentrations were added to the cells, and the MTT assay was used to assess viability after a 48 h treatment.

A further data set concerns U-937. Briefly: Antiproliferative activity, MTT assay, U-937 cells. It counts as cell-based, human. To be noted: for IC50: Homo sapiens, U-937, 72 h, MTT, mean ± SE, at least three independent experiments.
Text: as §2, §3

In another data set the test system is CDK9. Details: method as in PMID 30454645. To be noted: cited from earlier work.

T1 sequence (P50750 whole entry): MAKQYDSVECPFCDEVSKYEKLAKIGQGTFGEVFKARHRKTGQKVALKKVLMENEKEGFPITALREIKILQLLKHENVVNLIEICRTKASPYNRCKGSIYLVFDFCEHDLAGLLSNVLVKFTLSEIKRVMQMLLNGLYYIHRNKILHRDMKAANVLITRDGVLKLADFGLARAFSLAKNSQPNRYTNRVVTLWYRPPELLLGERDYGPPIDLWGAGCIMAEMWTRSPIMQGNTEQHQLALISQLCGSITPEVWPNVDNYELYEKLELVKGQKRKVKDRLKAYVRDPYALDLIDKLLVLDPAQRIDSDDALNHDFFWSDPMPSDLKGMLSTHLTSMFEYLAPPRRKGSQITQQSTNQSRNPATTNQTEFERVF
T1 sequence (O75909 whole entry partner): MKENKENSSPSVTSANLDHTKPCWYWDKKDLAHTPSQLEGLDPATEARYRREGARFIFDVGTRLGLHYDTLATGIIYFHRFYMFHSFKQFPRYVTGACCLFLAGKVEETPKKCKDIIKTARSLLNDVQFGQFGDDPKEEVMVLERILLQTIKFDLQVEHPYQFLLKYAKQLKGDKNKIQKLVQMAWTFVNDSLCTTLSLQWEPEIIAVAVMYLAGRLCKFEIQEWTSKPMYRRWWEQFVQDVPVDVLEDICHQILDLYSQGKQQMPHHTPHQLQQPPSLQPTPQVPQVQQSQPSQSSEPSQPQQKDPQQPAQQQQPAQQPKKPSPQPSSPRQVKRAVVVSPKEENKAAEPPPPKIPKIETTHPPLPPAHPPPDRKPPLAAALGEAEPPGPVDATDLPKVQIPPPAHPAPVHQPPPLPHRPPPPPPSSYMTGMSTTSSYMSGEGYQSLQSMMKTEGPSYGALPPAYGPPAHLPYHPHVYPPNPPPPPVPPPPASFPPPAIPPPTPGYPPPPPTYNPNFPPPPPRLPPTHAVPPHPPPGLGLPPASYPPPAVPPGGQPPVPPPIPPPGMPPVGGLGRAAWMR
T3 sequence (P11802 whole entry): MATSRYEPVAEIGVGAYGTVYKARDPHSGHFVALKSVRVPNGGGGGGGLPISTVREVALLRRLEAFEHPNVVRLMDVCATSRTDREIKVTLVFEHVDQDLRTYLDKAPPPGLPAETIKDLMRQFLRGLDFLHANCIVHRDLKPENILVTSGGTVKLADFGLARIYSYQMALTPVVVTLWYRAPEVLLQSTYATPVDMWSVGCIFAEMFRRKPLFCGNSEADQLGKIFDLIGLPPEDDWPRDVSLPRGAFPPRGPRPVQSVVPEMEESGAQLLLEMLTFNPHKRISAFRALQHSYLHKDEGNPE
T3 sequence (P24385 whole entry partner): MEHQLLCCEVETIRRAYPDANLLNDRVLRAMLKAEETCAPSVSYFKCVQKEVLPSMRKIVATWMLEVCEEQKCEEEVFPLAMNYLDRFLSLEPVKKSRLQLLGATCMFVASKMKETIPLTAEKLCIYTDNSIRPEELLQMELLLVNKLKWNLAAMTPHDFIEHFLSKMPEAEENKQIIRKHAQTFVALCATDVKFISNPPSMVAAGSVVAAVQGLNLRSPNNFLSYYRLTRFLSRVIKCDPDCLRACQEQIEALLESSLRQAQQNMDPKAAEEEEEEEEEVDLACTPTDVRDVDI
T2 sequence (Q00534 whole entry): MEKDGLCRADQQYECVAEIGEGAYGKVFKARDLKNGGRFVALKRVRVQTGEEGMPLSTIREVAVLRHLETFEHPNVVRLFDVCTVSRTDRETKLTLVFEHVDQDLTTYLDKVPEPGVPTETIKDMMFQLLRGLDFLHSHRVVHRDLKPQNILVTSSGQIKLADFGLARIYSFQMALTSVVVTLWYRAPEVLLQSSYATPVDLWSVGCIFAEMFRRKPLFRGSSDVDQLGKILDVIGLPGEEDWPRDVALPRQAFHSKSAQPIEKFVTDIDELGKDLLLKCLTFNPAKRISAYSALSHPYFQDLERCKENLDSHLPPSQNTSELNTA
T2 sequence (P30281 whole entry partner): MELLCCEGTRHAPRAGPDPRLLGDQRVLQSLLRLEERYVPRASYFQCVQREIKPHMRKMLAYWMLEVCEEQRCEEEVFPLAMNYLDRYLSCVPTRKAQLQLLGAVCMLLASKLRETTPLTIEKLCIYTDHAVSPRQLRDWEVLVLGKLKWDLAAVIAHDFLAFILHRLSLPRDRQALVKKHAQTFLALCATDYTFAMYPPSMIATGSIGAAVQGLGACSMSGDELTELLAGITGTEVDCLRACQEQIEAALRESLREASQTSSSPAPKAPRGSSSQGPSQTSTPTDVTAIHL

With `COc1cc(C(=O)c2sc(Nc3ccc(C)cc3)nc2N)cc(OC)c1OC` [2b], the IC50 with tubulin is 0.72 µM.

As to `COc1cc(C(=O)c2sc(N(C)Cc3ccccc3)nc2N)cc(OC)c1OC` [3a], the IC50 in [1] was less than 200 µM.

In the case of `COc1cc(C(=O)c2sc(NCCc3ccc(Cl)cc3)nc2N)cc(OC)c1OC` [8f, (4-Amino-2-((4-chlorophenethyl)amino)thiazol-5-yl)(3,4,5-trimethoxyphenyl)methanone], the inhibition at 10 µM on CDK9/CyclinK, on CDK6/Cyclin D3 and at CDK4/Cyclin D1 was 2 to 8% each time. For the same compound, the 50% inhibitory concentration (IC50) in the data set with SK-MEL-1 is 12.2 ± 3.2 µM; in the data set with Bovine brain tubulin it was greater than 20 µM; in the data set with U-937 it was 6.7 ± 3.6 µM. The “% G1” value is reported as 40.4 ± 1.0 % in the data set on U-937 leukemia cells (6 h, 10 µM); 40.5 ± 1.6 % in the data set on U-937 leukemia cells (6 h, 30 µM); 47.8 ± 1.0% with U-937 leukemia cells (12 h, 10 µM); 27.4 ± 0.4 % with U-937 leukemia cells (12 h, 30 µM); 42.5 ± 0.3 % in the data set on U-937 leukemia cells (24 h, 10 µM); 12.6 ± 0.7 % in the data set on U-937 leukemia cells (24 h, 30 µM). Besides, the “% G2-M” value stood at 23.6 ± 1.3% in the data set with U-937 leukemia cells (6 h, 10 µM); 23.3 ± 1.4% in the data set with U-937 leukemia cells (6 h, 30 µM); 21.5 ± 1.2% in the data set with U-937 leukemia cells (12 h, 10 µM); 27.6 ± 0.6 % in the data set with U-937 leukemia cells (12 h, 30 µM); 15.0 ± 0.8% with U-937 leukemia cells (24 h, 10 µM); 16.6 ± 0.8% in the data set on U-937 leukemia cells (24 h, 30 µM). For the same compound, the “% S” value is given as 29.3 ± 0.1 % in the data set on U-937 leukemia cells (6 h, 10 µM); 30.9 ± 0.4 % with U-937 leukemia cells (6 h, 30 µM); 22.4 ± 0.2% in the data set with U-937 leukemia cells (12 h, 10 µM); 25.5 ± 0.1 % with U-937 leukemia cells (12 h, 30 µM); 29.8 ± 0.3 % with U-937 leukemia cells (24 h, 10 µM); 13.6 ± 0.6 % in the data set on U-937 leukemia cells (24 h, 30 µM). The “% Sub-G1” value in the data set on U-937 leukemia cells (6 h, 10 µM) came to 4.4 ± 0.5%; in the data set with U-937 leukemia cells (6 h, 30 µM) it was 3.8 ± 0.1%; in the data set with U-937 leukemia cells (12 h, 10 µM) it was 6.5 ± 0.2 %; in the data set on U-937 leukemia cells (12 h, 30 µM), 17.8 ± 1.0 %; with U-937 leukemia cells (24 h, 10 µM) it was 10.3 ± 0.7 %; in the data set on U-937 leukemia cells (24 h, 30 µM), 56.2 ± 2.0 %. Further, the “increase of apoptotic cells with respect to control cells” value with U-937 leukemia cells (24 h, 30 µM) is listed as “approximately 16.5 fold”. In addition, the “inhibition of tubulin polymerization” value in the data set on Bovine brain tubulin is on record as “did not show any noteworthy inhibition”. Besides, the 50% inhibitory concentration (IC50) at 48 h in [2] was greater than 100 µM.

Take `COc1ccc(CCNc2nc(N)c(C(=O)c3cc(OC)c(OC)c(OC)c3)s2)cc1` [8k, (4-Amino-2-((4-methoxyphenethyl)amino)thiazol-5-yl)(3,4,5-trimethoxyphenyl)methanone]: the inhibition at 10 µM at CDK9/CyclinK, at CDK6/Cyclin D3 and at CDK4/Cyclin D1 was 2 to 8% throughout. In addition, the IC50 is 8 ± 4.3 µM in the data set with SK-MEL-1, greater than 20 µM in the data set with Bovine brain tubulin and 5.7 ± 1.3 µM with U-937. Also, the “% G1” value with U-937 leukemia cells (6 h, 10 µM) is listed as 38.7 ± 0.3 %; in the data set with U-937 leukemia cells (6 h, 30 µM) it was 35.6 ± 0.5 %; in the data set on U-937 leukemia cells (12 h, 10 µM), 41.9 ± 0.1 %; in the data set on U-937 leukemia cells (12 h, 30 µM) it was 17.3 ± 0.4 %; with U-937 leukemia cells (24 h, 10 µM), 39.4 ± 0.2 %; in the data set with U-937 leukemia cells (24 h, 30 µM), 11.2 ± 0.9 %. The “% G2-M” value with U-937 leukemia cells (6 h, 10 µM) came out at 25.3 ± 0.2 %; with U-937 leukemia cells (6 h, 30 µM), 23.1 ± 0.4%; with U-937 leukemia cells (12 h, 10 µM), 23.7 ± 1.4%; with U-937 leukemia cells (12 h, 30 µM) it was 29.9 ± 1.7 %; in the data set with U-937 leukemia cells (24 h, 10 µM) it was 17.2 ± 0.6%; in the data set on U-937 leukemia cells (24 h, 30 µM) it was 23.8 ± 2.9 %. The “% S” value in the data set with U-937 leukemia cells (6 h, 10 µM) amounted to 30.7 ± 0.1 %; in the data set with U-937 leukemia cells (6 h, 30 µM) it was 32.0 ± 0.5 %; with U-937 leukemia cells (12 h, 10 µM), 20.2 ± 0.4%; with U-937 leukemia cells (12 h, 30 µM), 26.8 ± 0.2 %; with U-937 leukemia cells (24 h, 10 µM), 28.4 ± 1.1 %; in the data set with U-937 leukemia cells (24 h, 30 µM) it was 11.5 ± 0.4 %. The “% Sub-G1” value was 3.7 ± 0.4% with U-937 leukemia cells (6 h, 10 µM); 7.6 ± 0.5 % in the data set on U-937 leukemia cells (6 h, 30 µM); 12.1 ± 0.8 % with U-937 leukemia cells (12 h, 10 µM); 24.3 ± 1.5 % in the data set with U-937 leukemia cells (12 h, 30 µM); 12.7 ± 0.1 % in the data set on U-937 leukemia cells (24 h, 10 µM); 51.5 ± 4.2 % with U-937 leukemia cells (24 h, 30 µM). The “increase of apoptotic cells with respect to control cells” value in the data set with U-937 leukemia cells (24 h, 30 µM) is given as roughly 15 fold. In the data set on Bovine brain tubulin, the “inhibition of tubulin polymerization” value was “did not show any noteworthy inhibition”. Besides, the IC50 at 48 h in [2] was greater than 100 µM. Also, the “increase of antiproliferative activity relative to 8j” value in the data set on U-937 (cell line not specified (U-937 and SK-MEL-1)) is given as 3-4 fold.

On to `COc1ccc(/C=C\c2cc(OC)c(OC)c(OC)c2)cc1O` [CA-4, combretastatin A-4, reference compound], for which the values for the IC50 with SK-MEL-1, in the data set with tubulin and with U-937 were 3.1 ± 2.9 µM, 1.4 µM and 0.019 ± 0.012 µM, respectively.

As to `Nc1nc(N[C@H]2CC3CCC2C3)sc1C(=O)c1ccccc1[N+](=O)[O-]` (stereo partly drawn) [compound 7, 2-(exo-2′-aminonorbornane)-4-amino-5-(2′-nitrobenzoyl)-thiazole], the “selectivity for CDK9 than for other CDKs” value in the data set on CDK9 was “at least 22 fold”.
